Experiments:
[1] = tested on: NIH/3T3 cells overexpressing FGFR3 WT-TACC3 fusion protein; experiment: NIH/3T3 FGFR3 WT-TACC3 cellular phospho-ERK assay (in vitro PD assay); format: cell-based; conditions: Mus musculus, NIH3T3; 1-hr incubation, AlphaLISA p-ERK1/2; read-out: NIH/3T3 FGFR3 WT-TACC3 pERK
Protocol: NIH/3T3 FGFR3 WT-TACC3 Cellular Phospho-ERK Assay (In Vitro PD Assay)
(§1) 50 μL of cell suspension (NIH/3T3 cells overexpressing FGFR3 WT-TACC3 fusion protein) (total 10,000 cells per well in growth medium (DMEM containing 1% Glutamax, 10% FBS and 1% Pen/Strep)) was seeded in a 384-well plate. After overnight incubation at 37° C. and 5% CO2, 5.5 μL of growth medium containing 10× testing compound was added into cell cultures (10 dose points with 4× serial dilution, starting with 10 μM, 0.1% DMSO final). After 1-hr incubation at 37° C. and 5% CO2, the medium was depleted and AlphaLISA SureFire Ultra p-ERKI1/2 (Thr202/Tyr204) Assay Kit (from PerkinElmer) was applied for phospho-ERK level detection according to the kit instructions. The RFUs (relative fluorescence units were measured on EnVision microplate reader (ex. 680 nm, em. 615 nm) and concentration-response curve was plotted using Prism to calculate IC50 (M), pIC50 (−log IC50) and HillSlope value.

[2] = tested on: NIH/3T3 cells transfected with control vector; experiment: NIH/3T3 mock cell proliferation assay (counter assay, general toxicity); format: cell-based; conditions: Mus musculus, NIH3T3; 72-hr incubation, CellTiter Glo; read-out: NIH/3T3 MOCK CTG
Protocol: NIH/3T3 Mock Cell Proliferation Assay
In day 1, 90 μL of cell suspension (NIH/3T3 cells transfected with the same control vector as in the above two proliferation assays) (total 30,000 cells per well in growth medium (DMEM containing 1% Glutamax, 10% FBS and 1% Pen/Strep)) was seeded in a 96-well plate and then incubated overnight at 37° C. and 5% CO2. In day 2, 10 μL of growth medium containing 10-fold stock solution of testing compound was added into cell cultures (9 dose points with 3× serial dilution, starting with 30 μM, 0.3% DMSO final). After 72-hr incubation at 37° C. and 5% CO2, in day 5 a volume of 50 μL CellTiter Glo (CTG) reagent was added into cell-containing 96-well plate and the plate was incubated at room temperature for 10 minutes before RLUs (relative light unit) were measured on a microplate reader with luminescence detection module. The RLU value was normalized to survival % and concentration-response curve was plotted using Prism to calculate IC50 (M), pIC50 (−log IC50) and HillSlope value.

[3] = tested on: NIH/3T3 cells overexpressing FGFR3 V555M-TACC3 fusion protein; experiment: NIH/3T3 FGFR3 V555M-TACC3 cellular phospho-ERK assay (in vitro PD assay); format: cell-based; conditions: Mus musculus, NIH3T3; 1-hr incubation, AlphaLISA p-ERK1/2; read-out: NIH/3T3 FGFR3 V555M-TACC3 pERK
Protocol: NIH/3T3 FGFR3 V555M-TACC3 Cellular Phospho-ERK Assay (In Vitro PD Assay)
as §1, with “V555M-TACC3” for “WT-TACC3”

[4] = biological target: T1, human FGFR3 V555L enzyme (cytoplasmic domain carrying V555L mutation) (Homo sapiens, UniProt P22607, V555L); experiment: FGFR3 V555L mobility shift assay (enzymatic assay); format: biochemical; conditions: 40 μM ATP, 50 minutes at 30° C.; read-out: FGFR3 V555L Caliper
T1 construct: cytoplasmic domain carrying V555L mutation, from Cama Biosciences; purchased Cama Biosciences (so in the source)
Protocol: FGFR3 V555L Mobility Shift Assay (Enzymatic Assay)
In a final reaction volume of 25 μL, 0.04 ng/μL human FGFR3 V555L enzyme (cytoplasmic domain carrying V555L mutation, from Cama Biosciences) was incubated with 40 μM ATP, 1 μM FL-peptide 30 substrate and 250 nL of testing compound (1% DMSO final) in assay buffer (100 mM HEPES pH 7.4, 10 mM MgCl2, 0.003% Brij35, 1 mM DTT). After incubation for 50 minutes at 30° C. the reaction was stopped with 10 μL of 0.5M EDTA pH 8.0, and then 25 μL of reaction mixture was transferred to reading plate and measured on Caliper EZ reader II. The substrate-product conversion rate was used as raw data for normalization and concentration-response curve (10 dose points with 4× serial dilution, starting with 10 μM) was plotted using Prism to calculate IC50 (M), pIC50 (−log IC50) and HillSlope value.

T1 sequence (P22607 397-806 V555L limits assumed): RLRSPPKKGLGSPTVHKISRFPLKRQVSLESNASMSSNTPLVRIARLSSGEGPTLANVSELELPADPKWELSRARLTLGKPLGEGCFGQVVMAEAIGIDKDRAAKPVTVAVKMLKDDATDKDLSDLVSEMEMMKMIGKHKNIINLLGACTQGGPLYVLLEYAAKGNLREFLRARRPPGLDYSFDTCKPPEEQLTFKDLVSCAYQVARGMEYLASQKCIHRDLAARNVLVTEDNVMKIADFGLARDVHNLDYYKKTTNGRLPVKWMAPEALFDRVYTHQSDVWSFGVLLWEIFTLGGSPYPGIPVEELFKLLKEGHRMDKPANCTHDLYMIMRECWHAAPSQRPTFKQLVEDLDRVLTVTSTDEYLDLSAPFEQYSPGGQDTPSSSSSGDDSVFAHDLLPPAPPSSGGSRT

- IC50 [4]: 0.32 nM
Compound: C[C@H](Nc1c(-c2nc3cnc(N4CCOCC4)cc3[nH]2)c(=O)[nH]c2ccsc12)c1ncccn1 [Compound 2, (S)-6-(6-Morpholino-1H-imidazo[4,5-c]pyridin-2-yl)-7-((1-(pyrimidin-2-yl)ethyl)amino)thieno[3,2-b]pyridin-5(4H)-one]
- IC50 [1]: 1.09 nM
- IC50 [2]: 891 nM
- IC50 [3]: 1.6 nM
